Test systems include ACHN renal; BT-549 breast; IGROV1 ovarian; M14 melanoma; NCI-H226 lung; OVCAR-3 ovarian; RPMI-8226 leukemia; SK-OV-3 ovarian; U251 CNS; UO-31 renal.
What all share (test): NCI-60 cell line screen, 48 h

“And” between values parts separate entries of the source, which are not always exact repeats. Identical values can stand only once.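 Growth conditions: 96-well plates. Treatment: test compound, 48 hours, 5 concentrations. Analysis: linear interpolation between bracketing concentrations; unreached endpoints set to highest concentration. The concentration for 50% growth inhibition is given as GI50. TGI: concentration producing complete growth inhibition.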

With `Clc1nc(Cl)c2ncn(CC3(Cn4cnc5c(Cl)nc(Cl)nc54)COC3)c2n1`, the GI50 was 0.57 µM with ACHN renal; 0.501 µM with BT-549 breast; 0.209 µM in the experiment on IGROV1 ovarian; 0.274 µM with M14 melanoma; 1.77 µM in the experiment on NCI-H226 lung; 0.202 µM with OVCAR-3 ovarian. In addition, the GI50 was 1.86 µM in the experiment on RPMI-8226 leukemia, 1.61 µM with SK-OV-3 ovarian, 0.181 µM with U251 CNS and 0.623 µM in the experiment with UO-31 renal. The TGI with ACHN renal amounted to 1.12 µM; in the experiment with BT-549 breast it was 1.69 µM; in the experiment with IGROV1 ovarian it was 0.405 µM; with M14 melanoma, 0.753 µM; in the experiment on NCI-H226 lung, 3.68 µM; in the experiment with OVCAR-3 ovarian it was 0.36 µM. Moreover, the TGI came out at 59.1 µM with RPMI-8226 leukemia, 2.98 µM in the experiment with SK-OV-3 ovarian, 0.331 µM in the experiment with U251 CNS and 1.35 µM with UO-31 renal.

Consider `COC12C=C/C(=C(/C(=O)OCc3cncnc3)C(=O)CCCCCCCCC3(OC)C=C/C(=C(/C(=O)OCc4cncnc4)C(=O)CCCCCCCC1)O3)O2`, for which the GI50 in the experiment on ACHN renal was 0.36 µM; in the experiment on BT-549 breast, 0.188 µM; with IGROV1 ovarian it was 0.589 µM; in the experiment with M14 melanoma, 0.167 µM; with NCI-H226 lung it was 0.656 µM; in the experiment on OVCAR-3 ovarian, 0.195 µM. Moreover, the GI50 in the experiment with RPMI-8226 leukemia is 0.207 µM; in the experiment with SK-OV-3 ovarian, 1.23 µM; with U251 CNS, 0.212 µM; with UO-31 renal, 0.542 µM. The TGI was 1.08 µM in the experiment with ACHN renal; 2.07 µM in the experiment on BT-549 breast; 1.96 µM with IGROV1 ovarian; 1.61 µM in the experiment on M14 melanoma; 1.65 µM with NCI-H226 lung; 1.07 µM in the experiment with OVCAR-3 ovarian. For the same compound, the TGI was determined as 3.55 µM in the experiment with RPMI-8226 leukemia, 5.31 µM in the experiment with SK-OV-3 ovarian, 1.06 µM in the experiment on U251 CNS and 1.28 µM in the experiment on UO-31 renal.

Regarding `O=c1[nH]nnc2c1ncn2C1OC(CO)C(O)C1O` (configuration not stated), the GI50 in the experiment on ACHN renal was 1.8 µM; in the experiment with BT-549 breast, greater than 100 µM; in the experiment on IGROV1 ovarian it was 2.96 µM; in the experiment on M14 melanoma, 3.57 µM; in the experiment on NCI-H226 lung, 10.3 µM; in the experiment with OVCAR-3 ovarian, 7.75 µM. Further, the GI50 in the experiment on RPMI-8226 leukemia was 6.71 µM; with SK-OV-3 ovarian it was 0.881 µM; in the experiment with U251 CNS, 41.5 µM; in the experiment with UO-31 renal, 3.18 µM. In addition, the TGI with ACHN renal, in the experiment on BT-549 breast, in the experiment on IGROV1 ovarian, in the experiment on M14 melanoma, with NCI-H226 lung and with OVCAR-3 ovarian was greater than 100 µM each time. Besides, the TGI in the experiment with RPMI-8226 leukemia, with SK-OV-3 ovarian, in the experiment with U251 CNS and with UO-31 renal was greater than 100 µM throughout.

`CN(/N=C/c1cccc2cccnc12)c1ccc([N+](=O)[O-])cc1[N+](=O)[O-]`: the TGI in the experiment with ACHN renal was 59.3 µM; with BT-549 breast it was 59.7 µM; in the experiment on IGROV1 ovarian, 70.8 µM; in the experiment on M14 melanoma it was greater than 94.4 µM; in the experiment with NCI-H226 lung it was 64.4 µM; with OVCAR-3 ovarian it was 39.8 µM. Also, the TGI with RPMI-8226 leukemia was greater than 100 µM; in the experiment on SK-OV-3 ovarian, 52.8 µM; with U251 CNS it was 29.1 µM; in the experiment on UO-31 renal it was 90.1 µM.

On to `CC(=O)NC1C(OC[C@@H](CC(=O)N[C@@H](CC(=O)O)CC(=O)N[C@H](CC(=O)N[C@@H](CCCN)CC(=O)N[C@@H](CCCN)CC(=O)N[C@H](CC(N)=O)C(C)C)C(C)C)NC(=O)C[C@@H](N)C(C)C)OC(CO)C(O)C1O` (some centres not stated), for which the GI50 in the experiment on ACHN renal, with BT-549 breast, with IGROV1 ovarian, with M14 melanoma, in the experiment on NCI-H226 lung and in the experiment with OVCAR-3 ovarian was greater than 100 µM each time. Further, the GI50 with RPMI-8226 leukemia, in the experiment with SK-OV-3 ovarian, with U251 CNS and in the experiment on UO-31 renal was greater than 100 µM throughout. Also, the TGI with ACHN renal, in the experiment with BT-549 breast, in the experiment with IGROV1 ovarian, with M14 melanoma, with NCI-H226 lung and with OVCAR-3 ovarian was greater than 100 µM in each case. Further, the TGI in the experiment with RPMI-8226 leukemia, with SK-OV-3 ovarian, in the experiment on U251 CNS and with UO-31 renal was greater than 100 µM each time.

Regarding `C=C(C)C(O)CCC1(C)C=Cc2c(c(C)cc3c2[nH]c2ccccc23)O1` (configuration not stated), the TGI was 25 µM and 16 µM in the experiment with ACHN renal; 25.5 µM in the experiment on BT-549 breast; 25 µM and 22 µM in the experiment with IGROV1 ovarian; 10.9 µM and 19.7 µM in the experiment with M14 melanoma; 22.7 µM and 21.7 µM in the experiment on NCI-H226 lung; 24 µM and 22 µM in the experiment on OVCAR-3 ovarian. Also, the TGI in the experiment with RPMI-8226 leukemia was 25 µM and 8.01 µM; with SK-OV-3 ovarian it was 25 µM and 22.9 µM; in the experiment with U251 CNS, 11.1 µM and 17.6 µM; in the experiment with UO-31 renal, 25 µM and 27.3 µM. For the same compound, the GI50 in the experiment on BT-549 breast was 12.9 µM; with IGROV1 ovarian it was 8.33 µM; in the experiment with M14 melanoma, 6.63 µM; with OVCAR-3 ovarian, 10.3 µM; with RPMI-8226 leukemia, 2.96 µM; in the experiment with SK-OV-3 ovarian it was 11 µM. The GI50 with UO-31 renal is 12 µM.

Take `O=C(Nc1ccc([As](=O)(O)O)cc1)Nc1cccc(Cl)c1Cl`: the TGI in the experiment with ACHN renal, in the experiment on BT-549 breast, in the experiment on IGROV1 ovarian, with M14 melanoma, in the experiment on NCI-H226 lung and with OVCAR-3 ovarian was greater than 100 µM each time. Also, the TGI in the experiment with RPMI-8226 leukemia, in the experiment on SK-OV-3 ovarian, with U251 CNS and in the experiment on UO-31 renal was greater than 100 µM each time.

`O=C(Oc1cccc(F)c1OC(=O)c1cccc(O)c1)c1cccc(O)c1`: the GI50 in the experiment with ACHN renal is 23.6 µM; in the experiment with BT-549 breast, 24.4 µM; with IGROV1 ovarian, 7.47 µM; in the experiment with M14 melanoma it was 34.1 µM; with NCI-H226 lung it was 45.3 µM; in the experiment on OVCAR-3 ovarian, 4.82 µM. The GI50 in the experiment on RPMI-8226 leukemia is 14.5 µM; with SK-OV-3 ovarian, 84 µM; with U251 CNS, 17.8 µM; in the experiment with UO-31 renal, 5.56 µM. Also, the TGI with ACHN renal was greater than 100 µM; in the experiment with BT-549 breast, greater than 100 µM; in the experiment on IGROV1 ovarian, greater than 100 µM; in the experiment on M14 melanoma, greater than 100 µM; with NCI-H226 lung, greater than 100 µM; in the experiment on OVCAR-3 ovarian it was 45.7 µM. For the same compound, the TGI with RPMI-8226 leukemia, with SK-OV-3 ovarian, with U251 CNS and in the experiment with UO-31 renal was greater than 100 µM each time.

These data come from PubChem BioAssay (NCI).
